Experimental data taken from ChEMBL document CHEMBL1201862, “PubChem BioAssay data set” (2004).
The source made the active and inactive calls.

Legend:
[1] = viability of uninfected HEp-2 cells – cell-based, HTS, cytotoxicity control for RSV inhibitor project, dose response (AID 2410); assay type: functional; settings: human respiratory syncytial virus
[2] = biological target: Photoreceptor-specific nuclear receptor (Homo sapiens, UniProt Q9Y5X4); assay type: functional;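 also: potency for compounds that break the NR2E3 corepressor complex and count as activators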
[3] = biological target: Peroxisome proliferator-activated receptor gamma/Nuclear receptor corepressor 2 (Homo sapiens, UniProt P37231+Q9Y618); assay type: functional
[4] = biological target: G-protein coupled receptor 55 (Homo sapiens, UniProt Q9Y2T6); assay: inhibition of LPI-stimulated GPR55 beta-arrestin translocation – imaging, U2OS, beta-arrestin-GFP, LPI agonist, primary screen (AID 2013); assay type: functional;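 also: antagonist potency measured as reduced agonist-driven arrestin aggregation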
[5] = biological target: Intestinal-type alkaline phosphatase (Mus musculus, UniProt P24822); assay: PubChem AID 488875; assay type: functional
[6] = biological target: T1, Alkaline phosphatase, tissue-nonspecific isozyme (Homo sapiens, UniProt P05186); assay: activation of tissue-nonspecific alkaline phosphatase – biochemical, TNAP isozyme, human IAP uHTS hits, selectivity assay for human IAP activator project, dose response (AID 488886); assay type: functional;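 also: potency of compounds raising TNAP activity as a selectivity check on IAP activators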
T1 sequence (P05186 whole entry): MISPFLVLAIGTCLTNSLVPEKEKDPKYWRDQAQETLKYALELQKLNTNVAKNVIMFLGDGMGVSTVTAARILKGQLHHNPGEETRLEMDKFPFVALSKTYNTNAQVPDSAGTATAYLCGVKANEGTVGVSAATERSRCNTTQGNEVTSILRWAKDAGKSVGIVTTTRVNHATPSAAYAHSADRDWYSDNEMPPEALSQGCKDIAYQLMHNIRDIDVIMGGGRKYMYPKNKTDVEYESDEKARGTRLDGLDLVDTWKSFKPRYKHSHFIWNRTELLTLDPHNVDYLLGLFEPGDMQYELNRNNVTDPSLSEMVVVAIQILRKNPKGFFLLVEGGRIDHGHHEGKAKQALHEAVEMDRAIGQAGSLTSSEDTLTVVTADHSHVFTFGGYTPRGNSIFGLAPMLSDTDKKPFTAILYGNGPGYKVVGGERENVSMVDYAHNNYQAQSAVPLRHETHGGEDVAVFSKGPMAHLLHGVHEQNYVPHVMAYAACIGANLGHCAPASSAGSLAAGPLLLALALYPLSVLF

[7] = biological target: T2, Intestinal-type alkaline phosphatase (Homo sapiens, UniProt P09923); assay: activation of human intestinal alkaline phosphatase – biochemical, luminescent, uHTS hits, set 2, dose response (AID 488817); assay type: functional;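 also: potency of activators that raise enzyme activity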
[8] = biological target: T2, Intestinal-type alkaline phosphatase; assay: human intestinal alkaline phosphatase activators, dose response, biochemical, luminescence, uHTS hits (AID 463120); assay type: functional
[9] = biological target: T3, Type-1 angiotensin II receptor (Homo sapiens, UniProt P30556); assay: agonist activity at AGTR1 – cell-based, uHTS hits, selectivity assay for APJ receptor agonist project, dose response (AID 488865); assay type: functional;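 also: beta-arrestin recruitment to AT1 measured by enzyme fragment complementation luminescence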
T3 sequence (P30556 whole entry): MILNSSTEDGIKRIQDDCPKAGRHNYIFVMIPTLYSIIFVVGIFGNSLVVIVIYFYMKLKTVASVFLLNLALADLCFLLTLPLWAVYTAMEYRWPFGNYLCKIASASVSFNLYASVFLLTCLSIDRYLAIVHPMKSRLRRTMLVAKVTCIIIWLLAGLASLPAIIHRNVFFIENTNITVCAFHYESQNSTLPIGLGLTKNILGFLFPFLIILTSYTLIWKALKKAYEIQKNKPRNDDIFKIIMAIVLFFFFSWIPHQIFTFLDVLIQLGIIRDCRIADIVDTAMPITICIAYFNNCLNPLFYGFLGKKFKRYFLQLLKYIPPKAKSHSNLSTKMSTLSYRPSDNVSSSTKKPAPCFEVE

T2 sequence (P09923 whole entry): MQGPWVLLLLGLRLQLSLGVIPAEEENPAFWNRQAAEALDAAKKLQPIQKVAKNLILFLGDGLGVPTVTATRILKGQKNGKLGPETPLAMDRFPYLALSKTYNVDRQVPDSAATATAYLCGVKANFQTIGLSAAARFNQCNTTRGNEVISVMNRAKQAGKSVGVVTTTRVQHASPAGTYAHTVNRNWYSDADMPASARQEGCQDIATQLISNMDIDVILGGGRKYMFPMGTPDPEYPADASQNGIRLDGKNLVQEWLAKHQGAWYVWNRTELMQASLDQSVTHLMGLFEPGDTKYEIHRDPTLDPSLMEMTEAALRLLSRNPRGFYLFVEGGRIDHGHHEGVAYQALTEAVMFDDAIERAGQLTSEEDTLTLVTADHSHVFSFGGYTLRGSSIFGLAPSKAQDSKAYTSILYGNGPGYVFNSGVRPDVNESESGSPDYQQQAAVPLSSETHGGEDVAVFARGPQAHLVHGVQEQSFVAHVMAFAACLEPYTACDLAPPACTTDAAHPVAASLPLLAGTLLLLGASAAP
G-protein coupled receptor 55, sequence (Q9Y2T6 whole entry): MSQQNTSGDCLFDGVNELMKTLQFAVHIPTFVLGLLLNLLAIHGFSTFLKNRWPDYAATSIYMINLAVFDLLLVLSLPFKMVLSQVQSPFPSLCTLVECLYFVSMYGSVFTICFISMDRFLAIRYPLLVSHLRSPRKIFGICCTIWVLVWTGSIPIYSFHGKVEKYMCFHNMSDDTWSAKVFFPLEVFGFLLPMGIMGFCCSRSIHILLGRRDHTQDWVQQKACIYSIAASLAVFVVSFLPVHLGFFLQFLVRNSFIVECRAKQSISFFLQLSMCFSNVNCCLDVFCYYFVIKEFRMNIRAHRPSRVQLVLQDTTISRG
Peroxisome proliferator-activated receptor gamma/Nuclear receptor corepressor 2, sequence (P37231 whole entry): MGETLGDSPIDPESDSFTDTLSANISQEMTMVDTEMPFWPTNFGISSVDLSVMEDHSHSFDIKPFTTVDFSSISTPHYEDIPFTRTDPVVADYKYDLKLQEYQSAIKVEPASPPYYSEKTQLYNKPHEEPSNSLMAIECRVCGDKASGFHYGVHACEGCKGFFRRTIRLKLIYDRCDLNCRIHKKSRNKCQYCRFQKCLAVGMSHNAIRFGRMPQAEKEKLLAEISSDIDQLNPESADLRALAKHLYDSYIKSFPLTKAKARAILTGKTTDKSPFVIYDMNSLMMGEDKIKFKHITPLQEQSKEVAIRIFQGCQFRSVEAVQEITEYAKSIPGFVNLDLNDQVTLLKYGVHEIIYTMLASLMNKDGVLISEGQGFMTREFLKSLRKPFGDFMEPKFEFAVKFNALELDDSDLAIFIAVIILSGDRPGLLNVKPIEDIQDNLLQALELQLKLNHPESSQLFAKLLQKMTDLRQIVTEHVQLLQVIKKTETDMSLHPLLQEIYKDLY
Peroxisome proliferator-activated receptor gamma/Nuclear receptor corepressor 2, sequence (Q9Y618 whole entry): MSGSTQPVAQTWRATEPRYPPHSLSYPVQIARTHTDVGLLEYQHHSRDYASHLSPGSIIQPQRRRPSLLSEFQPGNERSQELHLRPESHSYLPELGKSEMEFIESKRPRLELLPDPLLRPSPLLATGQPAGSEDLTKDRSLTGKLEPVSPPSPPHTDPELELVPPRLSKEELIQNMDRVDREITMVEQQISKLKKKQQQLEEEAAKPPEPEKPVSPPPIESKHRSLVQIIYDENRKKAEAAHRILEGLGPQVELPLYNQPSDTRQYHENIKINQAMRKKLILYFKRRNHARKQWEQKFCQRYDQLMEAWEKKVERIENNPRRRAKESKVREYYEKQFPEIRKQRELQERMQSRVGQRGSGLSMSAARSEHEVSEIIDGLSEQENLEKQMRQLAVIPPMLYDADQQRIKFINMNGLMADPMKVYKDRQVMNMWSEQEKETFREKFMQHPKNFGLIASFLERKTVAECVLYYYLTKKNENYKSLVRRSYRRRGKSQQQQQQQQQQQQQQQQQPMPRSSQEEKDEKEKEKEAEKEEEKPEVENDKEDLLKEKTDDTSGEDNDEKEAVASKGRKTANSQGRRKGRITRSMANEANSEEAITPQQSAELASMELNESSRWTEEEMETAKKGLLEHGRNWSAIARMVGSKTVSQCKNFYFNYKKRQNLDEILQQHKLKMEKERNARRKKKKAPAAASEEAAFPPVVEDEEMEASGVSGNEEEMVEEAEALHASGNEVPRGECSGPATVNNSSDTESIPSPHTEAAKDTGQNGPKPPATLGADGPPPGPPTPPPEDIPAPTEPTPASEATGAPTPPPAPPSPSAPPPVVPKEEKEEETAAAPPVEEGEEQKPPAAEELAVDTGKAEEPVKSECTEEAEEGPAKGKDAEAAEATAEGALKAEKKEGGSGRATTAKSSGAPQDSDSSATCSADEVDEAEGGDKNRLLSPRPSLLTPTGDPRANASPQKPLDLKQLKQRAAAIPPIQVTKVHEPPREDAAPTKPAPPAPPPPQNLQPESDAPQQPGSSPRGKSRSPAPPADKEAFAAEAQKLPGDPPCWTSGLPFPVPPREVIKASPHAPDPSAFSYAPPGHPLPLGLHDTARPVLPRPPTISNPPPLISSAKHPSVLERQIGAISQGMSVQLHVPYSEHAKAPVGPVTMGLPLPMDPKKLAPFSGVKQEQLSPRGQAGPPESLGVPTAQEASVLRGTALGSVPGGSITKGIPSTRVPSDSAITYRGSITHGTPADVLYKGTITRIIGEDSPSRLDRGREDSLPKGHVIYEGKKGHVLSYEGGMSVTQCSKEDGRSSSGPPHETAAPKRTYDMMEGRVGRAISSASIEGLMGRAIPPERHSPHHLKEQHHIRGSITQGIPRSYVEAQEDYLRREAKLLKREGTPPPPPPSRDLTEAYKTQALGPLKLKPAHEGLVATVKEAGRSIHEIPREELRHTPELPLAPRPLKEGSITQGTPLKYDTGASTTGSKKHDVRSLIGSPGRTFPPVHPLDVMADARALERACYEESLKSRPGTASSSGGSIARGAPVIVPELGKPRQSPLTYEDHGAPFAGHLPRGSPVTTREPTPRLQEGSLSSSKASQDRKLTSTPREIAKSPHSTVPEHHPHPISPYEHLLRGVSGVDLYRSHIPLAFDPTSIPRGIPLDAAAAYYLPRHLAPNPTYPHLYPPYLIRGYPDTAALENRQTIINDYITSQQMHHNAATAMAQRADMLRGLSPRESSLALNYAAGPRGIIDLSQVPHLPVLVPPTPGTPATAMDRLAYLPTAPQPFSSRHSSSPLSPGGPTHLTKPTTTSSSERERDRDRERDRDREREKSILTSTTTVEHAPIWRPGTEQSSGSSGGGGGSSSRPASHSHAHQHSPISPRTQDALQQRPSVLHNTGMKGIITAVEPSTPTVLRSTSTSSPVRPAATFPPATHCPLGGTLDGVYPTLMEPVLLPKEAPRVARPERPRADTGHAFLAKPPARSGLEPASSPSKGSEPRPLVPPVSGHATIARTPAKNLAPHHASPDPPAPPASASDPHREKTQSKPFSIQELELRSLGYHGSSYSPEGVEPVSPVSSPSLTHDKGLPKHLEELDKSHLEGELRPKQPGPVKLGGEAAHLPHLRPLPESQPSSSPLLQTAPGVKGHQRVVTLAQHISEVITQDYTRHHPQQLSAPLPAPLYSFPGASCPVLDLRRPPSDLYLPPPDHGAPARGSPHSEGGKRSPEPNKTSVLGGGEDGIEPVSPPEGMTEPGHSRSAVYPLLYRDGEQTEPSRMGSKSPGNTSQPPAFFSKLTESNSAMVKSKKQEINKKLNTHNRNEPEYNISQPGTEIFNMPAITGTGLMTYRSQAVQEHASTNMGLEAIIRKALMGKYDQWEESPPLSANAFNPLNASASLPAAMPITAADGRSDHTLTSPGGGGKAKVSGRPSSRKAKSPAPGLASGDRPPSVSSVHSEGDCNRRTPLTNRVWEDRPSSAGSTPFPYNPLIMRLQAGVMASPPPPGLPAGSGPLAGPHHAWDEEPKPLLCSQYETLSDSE
Intestinal-type alkaline phosphatase (Mus musculus, UniProt P24822), sequence (P24822 whole entry): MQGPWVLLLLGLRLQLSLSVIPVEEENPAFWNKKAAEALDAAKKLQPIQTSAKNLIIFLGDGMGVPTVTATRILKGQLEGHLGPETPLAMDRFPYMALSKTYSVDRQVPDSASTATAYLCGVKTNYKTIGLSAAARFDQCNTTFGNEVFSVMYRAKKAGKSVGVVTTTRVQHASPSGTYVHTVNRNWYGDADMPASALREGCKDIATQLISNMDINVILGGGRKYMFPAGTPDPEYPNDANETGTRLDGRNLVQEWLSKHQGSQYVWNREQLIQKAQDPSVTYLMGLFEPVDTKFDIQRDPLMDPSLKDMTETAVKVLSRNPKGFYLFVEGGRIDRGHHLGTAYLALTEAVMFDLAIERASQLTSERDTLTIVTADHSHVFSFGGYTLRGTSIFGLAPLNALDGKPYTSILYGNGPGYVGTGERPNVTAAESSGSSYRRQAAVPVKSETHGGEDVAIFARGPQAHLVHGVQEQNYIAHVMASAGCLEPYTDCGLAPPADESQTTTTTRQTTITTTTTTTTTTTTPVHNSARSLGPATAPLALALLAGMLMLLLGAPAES
Photoreceptor-specific nuclear receptor, sequence (Q9Y5X4 whole entry): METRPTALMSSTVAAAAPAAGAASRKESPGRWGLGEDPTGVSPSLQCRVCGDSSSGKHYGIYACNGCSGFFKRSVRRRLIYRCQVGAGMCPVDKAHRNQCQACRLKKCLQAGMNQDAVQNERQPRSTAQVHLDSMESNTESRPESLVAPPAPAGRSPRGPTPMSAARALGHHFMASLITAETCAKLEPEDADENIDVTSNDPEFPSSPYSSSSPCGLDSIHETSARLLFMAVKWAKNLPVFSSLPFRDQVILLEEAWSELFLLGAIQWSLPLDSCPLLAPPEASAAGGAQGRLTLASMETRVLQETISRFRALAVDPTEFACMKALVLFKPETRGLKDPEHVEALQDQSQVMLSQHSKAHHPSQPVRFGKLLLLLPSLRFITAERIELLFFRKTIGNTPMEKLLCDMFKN

In the case of `COC(=O)c1cc2c(-c3ccccc3)c(C)c3ccccn3c-2c1C(=O)OC`, the CC50 [1] is reported as 27 µM (active), the IC50 (cells) is reported as 23.4 µM (active) and the IC50 [2] is reported as > 1.48 µM (active). The IC50 [3] was 1.31 µM (active) and the IC50 [4] was 2.58 µM (active).
For `COc1ccc(OC)c(NC(=O)c2cc(-c3cc(C)ccc3O)n[nH]2)c1`, the EC50 [5] was > 100 µM (inactive), the EC50 [6] was 18.5 µM (active) and the EC50 [7] was 20.8 µM (active). The EC50 [8] was 15.1 µM (active).
With `COC/C=C/C1=CC2=CC(=O)C(C)(OC(=O)c3cnc4ccccc4n3)C(=O)C2=CN1c1ccccc1` (stereo not given) the EC50 [9] was > 100 µM (inactive).
